These results are taken from patent US6414150B1, “4,5-disubstituted imidazole compounds” (SmithKline Beecham Corporation, priority 1996, dated 2002).

The first test has as its system human PGHS-2 protein expression in LPS stimulated human monocytes. Description: Prostaglandin Endoperoxide Synthase-2 (PGHS-2) assay. It is filed as cell-based. The note with it: LPS 50 ng/well overnight, Western blot. Here is the method: The following assay describes a method for determining the inhibitory effects of compounds of Formula (I) on human PGHS-2 protein expression in LPS stimulated human monocytes.
Method: Human peripheral blood monocytes were isolated from buffy coats by centrifugation through Ficoll and Percoll gradients. Cells were seeded at 2×10^6/well in 24 well plates and allowed to adhere for 1 hour in RPMI supplemented with 1% human AB serum, 20 mM L-glutamine, Penicillin-Streptomycin and 10 mM HEPES. Compounds were added at various concentrations and incubated at 37° C. for 10 minutes. LPS was added at 50 ng/well (to induce enzyme expression) and incubated overnight at 37° C. The supernatant was removed and cells washed once in cold PBS. The cells were lysed in […] of cold lysis buffer(50 mM Tris/HCl pH 7.5, 150 mM NaCl, 1% NP40, 0.5% sodium deoxycholate, 0.1% SDS, 300 ug/ml DNAse, 0.1% TRITON X-100, 1 mM PMSF, 1 mM leupeptin, 1 mM pepstatin). The lysate was centrifuged (10,000×g for 10 min. at 4° C.) to remove debris and the soluble fraction was subjected to SDS PAGE. analysis (12% gel). Protein separated on the gel were transferred onto nitrocellulose membrane by electrophoretic means for 2 hours at 60 volts. The membrane was pretreated for one hour in PBS/0.1% Tween 20 with 5% non-fat dry milk. After washing 3 times in PBS/Tween buffer, the membrane was incubated with a 1:2000 dilution of a monospecific antiserum to PGHS-2 or a 1:1000 dilution of an antiserum to PGHs-1 in PBS/Tween with 1% BSA for one hour with continuous shaking. The membrane was washed 3× in PBS/Tween and then incubated with a 1:3000 dilution of horseradish peroxidase conjugated donkey antiserum to rabbit Ig (Amersham) in PBS/Tween with 1% BSA for one hour with continuous shaking. The membrane was then washed 3× in PBS/Tween and the ECL immunodetection system (Amersham) was used to detect the level of expression of prostaglandin endoperoxide synthases-2.
On the technique in general: A western blot detects proteins with antibodies after separation by electrophoresis.
`Fc1ccc(-c2nc3n(c2-c2ccncc2)CCS3)cc1` [6-(4-Fluoro-phenyl)-2,3-dihydro-5-(4-pyridinyl)imidazo[2,1-b]thiazole]: the “inhibition of LPS induced PGHS-2 protein expression” value (“inhibition” for short) is given as “active”.
As for `C[C@@H]1C[C@H]2[C@@H]3CCC4=CC(=O)C=C[C@]4(C)[C@@]3(F)[C@@H](O)C[C@]2(C)[C@@]1(O)C(=O)CO` [Dexamethasone], the “inhibition” value was “active”.

Still in this test, the particulars now being: tested up to 10 uM.
On to `C[S+]([O-])c1ccc(-c2nc3n(c2-c2ccncc2)CCC3)cc1` (stereo not drawn) [2-(4-Methylsulfinylphenyl)-3-(4-pyridyl)-6,7-dihydro-(5H)-pyrrolo[1,2-a]imidazole], for which the “inhibition” value was “inactive”.
As to `CC(Cc1ccc(O)c(O)c1)C(C)Cc1ccc(O)c(O)c1` (stereo not drawn) [NDGA], the “inhibition” value was “inactive”.
Still for that read-out and setting: in the case of `O=C1CCN(c2ccccc2)N1` [phenidone] it was “inactive”; in that of `COc1ccc(C2CNC(=O)C2)cc1OC1CCCC1` (stereo not drawn) [rolipram], “inactive”.
